In patent US11141410B2 (MERCK SHARP & DOHME CORP., priority 2015, dated 2021):

Key:
MRSA COL (MB5393) [1] = assay: TarO Inhibitor/β-Lactam Synergy Assay (growth, OD600); format: cell-based, Staphylococcus aureus; settings: for MITC95 TarO inhibitor + 4 μg/mL IPM; Bacteria: SA_MB5393: in combination with 4 μg/mL imipenem (IPM); for MITC95 TarO inhibitor + 8 μg/mL DCX; Bacteria: SA_MB5393: in combination with 8 μg/mL dicloxacillin (DCX)
Procedure: The TarO inhibitor/β-lactam synergy assay was performed to measure the re-sensitization of methicillin-resistant Staphylococci bacteria (MB5393: MRSA COL) to β-lactam antibiotics by TarO inhibitors. MRSA COL is a hospital-acquired penicillinase-negative clinically isolated strain commonly used in Staphylococcus aureus studies and is fully resistant to the antimicrobial bioactivity of β-lactam antibiotics, including but not limited to imipenem and dicloxacillin. […] MRSA COL is fully refractory to β-lactam antibiotic effect at the current clinical breakpoint concentrations and as such MRSA COL is fully viable at these concentrations.
The β-lactam antibiotic concentration was fixed at the clinical breakpoint (imipenem 4 μg/ml or dicloxacillin 8 μg/ml) and the TarO inhibitors were titrated by 2 fold starting from the highest concentration of 200 μM with final DMSO concentration of 2% in the assay. 5×10^5 colony forming unit of MRSA COL in cation-adjusted Mueller Hinton broth (CAMHB) was then mixed and the assay plate was incubated for 20 hours at 37° C. without shaking. After 20 hours, the optical density at 600 nm (OD600) was read for all wells to determine relative growth of MRSA COL.

MRSA COL (MB5393) [2] = assay: as above; format: cell-based; settings: Staphylococcus aureus, TarO inhibitor alone, >200 μM = 95% growth inhibition not achieved, 20 hours at 37° C., read-out: MITC95 TarO inhibitor alone, Bacteria: SA_MB5393

| Compound | MITC95 TarO inhibitor + 4 μg/mL IPM; Bacteria: SA_MB5393 (MRSA COL (MB5393) [1]) [µM] | MITC95 TarO inhibitor + 8 μg/mL DCX; Bacteria: SA_MB5393 (MRSA COL (MB5393) [1]) [µM] | IC95 (MRSA COL (MB5393) [2]) [µM] | MITC95 concentration of β-lactam antibiotic alone (MRSA COL (MB5393) [1]; β-lactam alone, MRSA COL) [µg/mL] |
| --- | --- | --- | --- | --- |
| C[C@@H]1CN(C(=O)NCc2cncc3ccccc23)C(=O)OC1c1cc(C(F)(F)F)cc(C(F)(F)F)c1 (stereo in doubt) [Example 93, (5R,6S)-6-(3,5-bis(trifluoromethyl)phenyl)-N-(isoquinolin-4-ylmethyl)-5-methyl-2-oxo-1,3-oxazinane-3-carboxamide] | 0.13 | 0.50 | > 200 |  |
| C[C@H]1[C@@H](c2cc(C(F)(F)F)cc(C(F)(F)F)c2)OC(=O)N1C(=O)NCc1cncc2ccccc12 [Example 1, (4S,5R)-5-(3,5-bis(trifluoromethyl)phenyl)-N-(isoquinolin-4-ylmethyl)-4-methyl-2-oxooxazolidine-3-carboxamide] | 0.03 | 0.39 | > 200 |  |
| C[C@H]1[C@@H](c2cc(C(F)(F)F)cc(C(F)(F)F)c2)OC(=O)N1C(=O)NCc1cccc2ccnn12 [Example 2, (4S,5R)-5-[3,5-bis(trifluoromethyl)phenyl]-4-methyl-2-oxo-N-(pyrazolo[1,5-a]pyridin-7-ylmethyl)-1,3-oxazolidine-3-carboxamide] | 0.01 | 0.21 | > 200 |  |
| C[C@H]1[C@@H](c2cc(F)cc(C(F)(F)F)c2)OC(=O)N1C(=O)NCc1ccccc1[N+](=O)[O-] [Example 3, (4S,5R)-5-[3-fluoro-5-(trifluoromethyl)phenyl]-4-methyl-N-(2-nitrobenzyl)-2-oxo-1,3-oxazolidine-3-carboxamide] | 0.33 | 2.60 | > 200 |  |
| C[C@H]1[C@@H](c2cc(C(F)(F)F)cc(C(F)(F)F)c2)OC(=O)N1C(=O)NCc1cncc2cccnc12 [Example 4, (4S,5R)-5-[3,5-bis(trifluoromethyl)phenyl]-4-methyl-N-(1,6-naphthyridin-8-ylmethyl)-2-oxo-1,3-oxazolidine-3-carboxamide] | 0.13 | 0.39 | > 200 |  |
| C[C@H]1[C@@H](c2cc(F)cc(C(F)(F)F)c2)OC(=O)N1C(=O)NCc1ccccc1OC(F)F [Example 5, (4S,5R)-N-[2-(difluoromethoxy)benzyl]-5-[3-fluoro-5-(trifluoromethyl)phenyl]-4-methyl-2-oxo-1,3-oxazolidine-3-carboxamide] | 0.09 | 0.71 | > 200 |  |
| C[C@H]1[C@@H](c2cc(F)cc(C(F)(F)F)c2)OC(=O)N1C(=O)NCc1cccc2ccccc12 [Example 6, (4S,5R)-5-[3-fluoro-5-(trifluoromethyl)phenyl]-4-methyl-N-(naphthalen-1-ylmethyl)-2-oxo-1,3-oxazolidine-3-carboxamide] | 0.01 | 0.02 | > 200 |  |
| C[C@H]1[C@@H](c2cc(F)cc(C(F)(F)F)c2)OC(=O)N1C(=O)NCc1ccccc1C(F)(F)F [Example 7, (4S,5R)-5-[3-fluoro-5-(trifluoromethyl)phenyl]-4-methyl-2-oxo-N-[2-(trifluoromethyl)benzyl]-1,3-oxazolidine-3-carboxamide] | 0.05 | 0.33 | > 200 |  |
| COc1ccccc1CNC(=O)N1C(=O)O[C@H](c2cc(F)cc(C(F)(F)F)c2)[C@@H]1C [Example 8, (4S,5R)-5-[3-fluoro-5-(trifluoromethyl)phenyl]-N-(2-methoxybenzyl)-4-methyl-2-oxo-1,3-oxazolidine-3-carboxamide] | 0.13 | 1.32 | > 200 |  |
| C[C@H]1[C@@H](c2cc(F)cc(C(F)(F)F)c2)OC(=O)N1C(=O)NCc1cccc(N(C)C)c1 [Example 9, (4S,5R)-N-[3-(dimethylamino)benzyl]-5-[3-fluoro-5-(trifluoromethyl)phenyl]-4-methyl-2-oxo-1,3-oxazolidine-3-carboxamide] | 0.22 | 1.65 | > 200 |  |
| C[C@H]1[C@@H](c2cc(C(F)(F)F)cc(C(F)(F)F)c2)OC(=O)N1C(=O)NCc1cccc2nccnc12 [Example 10, (4S,5R)-5-[3,5-bis (trifluoromethyl)phenyl]-4-methyl-2-oxo-N-(quinoxalin-5-ylmethyl)-1,3-oxazolidine-3-carboxamide] | 0.06 | 0.37 | > 200 |  |
| C[C@H]1[C@@H](c2cc(F)cc(C(F)(F)F)c2)OC(=O)N1C(=O)NCc1cccc2c1OCCO2 [Example 11, (4S,5R)-N-(2,3-dihydro-1,4-benzodioxin-5-ylmethyl)-5-[3-fluoro-5-(trifluoromethyl)phenyl]-4-methyl-2-oxo-1,3-oxazolidine-3-carboxamide] | 0.13 | 1.42 | > 200 |  |
| C[C@H]1[C@@H](c2cc(F)cc(C(F)(F)F)c2)OC(=O)N1C(=O)NCc1cccc2cc[nH]c12 [Example 12, (4S,5R)-5-[3-fluoro-5-(trifluoromethyl)phenyl]-N-(1H-indol-7-ylmethyl)-4-methyl-2-oxo-1,3-oxazolidine-3-carboxamide] | 0.25 | 1.56 | > 200 |  |
| CCOc1ccccc1CNC(=O)N1C(=O)O[C@H](c2cc(F)cc(C(F)(F)F)c2)[C@@H]1C [Example 13, (4S,5R)-N-(2-ethoxybenzyl)-5-[3-fluoro-5-(trifluoromethyl)phenyl]-4-methyl-2-oxo-1,3-oxazolidine-3-carboxamide] | 0.06 | 0.35 | > 200 |  |
| C[C@H]1[C@@H](c2cc(F)cc(C(F)(F)F)c2)OC(=O)N1C(=O)NCc1nccc2sccc12 [Example 14, (4S,5R)-5-[3-fluoro-5-(trifluoromethyl)phenyl]-4-methyl-2-oxo-N-(thieno[3,2-c]pyridin-4-ylmethyl)-1,3-oxazolidine-3-carboxamide] | 0.49 | 5.63 | > 200 |  |
| C[C@H]1[C@@H](c2cccc(C(F)(F)F)c2)OC(=O)N1C(=O)NCc1cncc2cccnc12 [Example 15, (4S,5R)-4-methyl-N-(1,6-naphthyridin-8-ylmethyl)-2-oxo-5-[3-(trifluoromethyl)phenyl]-1,3-oxazolidine-3-carboxamide] | 0.98 | 4.69 | > 200 |  |
| Cc1ccccc1CNC(=O)N1C(=O)O[C@H](c2cc(F)cc(C(F)(F)F)c2)[C@@H]1C [Example 16, (4S,5R)-5-[3-fluoro-5-(trifluoromethyl)phenyl]-4-methyl-N-(2-methylbenzyl)-2-oxo-1,3-oxazolidine-3-carboxamide] | 0.38 | 3.52 | > 200 |  |
| C[C@H]1[C@@H](c2cc(C(F)(F)F)cc(C(F)(F)F)c2)OC(=O)N1C(=O)NCc1nccc2ccoc12 [Example 17, (4S,5R)-5-[3,5-bis(trifluoromethyl)phenyl]-N-(furo[2,3-c]pyridin-7-ylmethyl)-4-methyl-2-oxo-1,3-oxazolidine-3-carboxamide] | 0.39 | 4.30 | > 200 |  |
| C[C@H]1[C@@H](c2cc(C(F)(F)F)cc(C(F)(F)F)c2)OC(=O)N1C(=O)NCC1CCCc2ccccc21 (stereo partly drawn) [Example 19, (4S,5R)-5-[3,5-bis(trifluoromethyl)phenyl]-4-methyl-2-oxo-N-(1,2,3,4-tetrahydronaphthalen-1-ylmethyl)-1,3-oxazolidine-3-carboxamide] | 0.15 | 1.45 | > 200 |  |
| Cc1nc(C(C)C)sc1CNC(=O)N1C(=O)O[C@H](c2cc(F)cc(C(F)(F)F)c2)[C@@H]1C [Example 20, (4S,5R)-5-[3-fluoro-5-(trifluoromethyl)phenyl]-4-methyl-N-{[4-methyl-2-(1-methylethyl)-1,3-thiazol-5-yl]methyl}-2-oxo-1,3-oxazolidine-3-carboxamide] | 0.43 | 3.65 | > 200 |  |
| Cc1onc(-c2c(Cl)cccc2Cl)c1C(=O)N[C@@H]1C(=O)N2[C@@H]1SC(C)(C)[C@@H]2C(=O)O [dicloxacillin, reference compound] |  |  |  | 128 |
